Measured values taken from ChEMBL document CHEMBL4431383, “Structure-activity relationship of novel series of 1,5-disubstituted tetrazoles as cyclooxygenase-2 inhibitors: Design, synthesis, bioassay screening and molecular docking studies” (Bioorg Med Chem Lett, 2016).
pIC50: −log10 of the molar value.

Legend:
[1] = molecular target: T1, Prostaglandin G/H synthase 1 (Ovis aries, UniProt P05979); assay: Inhibition of ovine COX1 assessed as PGH2 formation preincubated for 10 mins followed by addition of arachidonic acid as substrate measured after 2 mins by ELISA
T1 sequence (P05979 whole entry): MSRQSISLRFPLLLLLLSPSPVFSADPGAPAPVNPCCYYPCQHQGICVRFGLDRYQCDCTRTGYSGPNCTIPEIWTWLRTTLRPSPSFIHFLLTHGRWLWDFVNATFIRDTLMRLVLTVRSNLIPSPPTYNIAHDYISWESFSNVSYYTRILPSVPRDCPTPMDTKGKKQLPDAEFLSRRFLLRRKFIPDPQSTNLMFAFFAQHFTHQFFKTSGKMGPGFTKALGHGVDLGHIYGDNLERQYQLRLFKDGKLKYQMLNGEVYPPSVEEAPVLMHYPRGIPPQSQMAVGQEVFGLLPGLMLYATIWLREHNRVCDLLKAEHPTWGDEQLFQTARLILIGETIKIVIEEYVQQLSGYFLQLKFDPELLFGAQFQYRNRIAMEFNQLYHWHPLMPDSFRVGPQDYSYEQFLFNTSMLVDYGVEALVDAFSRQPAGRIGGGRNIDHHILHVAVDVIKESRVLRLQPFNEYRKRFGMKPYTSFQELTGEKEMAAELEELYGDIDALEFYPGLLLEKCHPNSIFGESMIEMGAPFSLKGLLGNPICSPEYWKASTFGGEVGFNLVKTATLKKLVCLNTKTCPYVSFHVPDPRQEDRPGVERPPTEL

[2] = molecular target: T2, Prostaglandin G/H synthase 2 (Homo sapiens, UniProt P35354); assay: Inhibition of recombinant human COX2 assessed as PGH2 formation preincubated for 10 mins followed by addition of arachidonic acid as substrate measured after 2 mins by ELISA
T2 sequence (P35354 whole entry): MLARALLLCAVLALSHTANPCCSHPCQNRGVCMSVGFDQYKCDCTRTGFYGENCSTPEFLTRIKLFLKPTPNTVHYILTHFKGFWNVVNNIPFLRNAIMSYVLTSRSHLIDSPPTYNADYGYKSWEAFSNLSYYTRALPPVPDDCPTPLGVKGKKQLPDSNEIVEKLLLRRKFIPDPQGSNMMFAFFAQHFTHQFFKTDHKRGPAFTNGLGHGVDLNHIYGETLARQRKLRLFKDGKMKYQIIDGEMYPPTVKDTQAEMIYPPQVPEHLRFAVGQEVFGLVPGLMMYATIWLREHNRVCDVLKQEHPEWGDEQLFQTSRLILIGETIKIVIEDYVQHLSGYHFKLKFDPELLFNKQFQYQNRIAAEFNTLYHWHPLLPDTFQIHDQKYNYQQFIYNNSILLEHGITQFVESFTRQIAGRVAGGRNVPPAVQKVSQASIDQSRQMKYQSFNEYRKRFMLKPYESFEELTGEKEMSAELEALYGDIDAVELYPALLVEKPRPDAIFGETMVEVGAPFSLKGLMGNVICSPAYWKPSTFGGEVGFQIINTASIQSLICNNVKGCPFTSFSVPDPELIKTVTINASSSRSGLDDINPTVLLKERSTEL

[3] = Selectivity ratio of IC50 for ovine COX-1 to IC50 for recombinant human COX-2
[4] = Selectivity ratio of IC50 for recombinant human COX-2 to IC50 for ovine COX-1

Structure (SMILES)	pIC50 [1]	pIC50 [2]	Ratio IC50 [3]	Ratio IC50 [4]
NS(=O)(=O)c1ccc(-c2nnnn2-c2ccc(O)cc2)cc1	4.00	< 3.30	> 0.2	–
CS(=O)(=O)c1ccc(Cc2nnnn2-c2ccc(CCO)cc2)cc1	< 3.70	5.52	> 67	> 0.015
NS(=O)(=O)c1ccc(-c2nnnn2-c2ccc(CO)cc2)cc1	4.68	4.62	0.87	1.14
CS(=O)(=O)c1ccc(-c2nnnn2-c2ccc(O)cc2)cc1	< 3.30	< 3.52	> 1.7	–
CS(=O)(=O)c1ccc(Cc2nnnn2-c2ccc(CO)cc2)cc1	< 3.70	4.42	> 5.2	> 0.19
NS(=O)(=O)c1ccc(-c2nnnn2-c2ccc(CCO)cc2)cc1	< 3.70	4.00	> 2	–
CS(=O)(=O)c1ccc(-c2nnnn2-c2ccc(CCO)cc2)cc1	< 3.30	4.15	> 7.1	–
CS(=O)(=O)c1ccc(-c2nnnn2-c2ccc(CO)cc2)cc1	5.05	< 3.30	> 0.02	55
CS(=O)(=O)c1ccc(Cc2nnnn2-c2ccc(O)cc2)cc1	4.07	< 3.70	> 0.42	–
